Assay results published in patent US6221637A, “Xanthene derivatives, their production and use” (Takeda Chemical Industries, Ltd., priority 1996, dated 2001).
≈ marks a conversion by molar mass, not a printed value.

Assays:
[1] = test system: interleukin 2 (IL-2) production by human peripheral blood T cells; test: Inhibition test for interleukin 2 (IL-2) production by human peripheral blood T cells; format: cell-based; settings: anti-CD3 antibody coated plates; CHO cells expressing B7-1; 48 hours, 37° C.; read-out: IC50 value (concentration for 50% suppression of interleukin-2 production)
Procedure: a) Expression of B7-1 in CHO cells
Using petri dishes 10 cm in diameter, 1×10^5 Chinese hamster ovary (CHO) cells were cultured in an αMEM medium containing 10% fetal bovine serum for 24 hours. To these cells, the B7-1 cDNA expression plasmid pME-B7-1 as obtained in Reference Example 1 (10 μg) and the neomycin resistance expression plasmid pME-neo (1 μg) were introduced by the calcium phosphate method. Forty-eight hours later, GENETICIN (G418 sulfate, GIBCO) was added to a final concentration of 0.5 mg/ml, and cells that acquired neomycin resistance were selected. For these selected cells, B7-1 expression was examined by flow cytometry (EPICS ELITE, COULTER), and cells showing high expression of B7-1 were obtained. These cells were cloned by the limiting dilution method to obtain B7-1-CHO-22, a cell line that stably expresses high amount of B7-1.
Inhibition test for interleukin 2 (IL-2) production by human peripheral blood T cells
Blood was collected from a healthy normal human, overlaid on lymphocyte separation medium (LSM, Organon Teknica Co.), and centrifuged at room temperature at 2,000 rpm for 20 minutes to obtain human peripheral blood mononuclear cells. […] The IL-2 produced in the culture supernatant was quantified using the HUMAN INTERLEUKIN-2 EIA KIT (Cayman Chemical Co.).

[2] = test system: mice; test: Toxicity test; format: in vivo; settings: intraperitoneally, 400 mg/kg
[3] = molecular target: T1, binding of B7-1 to CD28 (Homo sapiens, UniProt P10747+P33681); test: Binding inhibition test using soluble B7-1-Ig; settings: 10 μg/ml soluble B7-1-Ig; fixed CD28-expressing CHO cells; 30 minutes at room temperature; read-out: IC50 (concentration for 50% inhibition of binding) (converted)
T1 construct: ligating the Fc region of human IgG to the C-terminal side of the extracellular region of B7-1; Fc region of human IgG (from plasmid pTB1455); expressed in transfected cells; soluble B7-1-Ig made in house by sB7-1-Ig-CHO-20 and purified from its supernatant
T1 sequence (P10747 19-220): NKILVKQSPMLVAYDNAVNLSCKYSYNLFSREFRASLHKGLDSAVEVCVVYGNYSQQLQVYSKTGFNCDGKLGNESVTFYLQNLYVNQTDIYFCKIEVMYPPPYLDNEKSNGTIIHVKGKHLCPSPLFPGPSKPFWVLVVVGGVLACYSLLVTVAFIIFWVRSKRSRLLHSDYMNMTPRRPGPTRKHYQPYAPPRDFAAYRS
T1 sequence (P33681 with tags, fused parts or gaps): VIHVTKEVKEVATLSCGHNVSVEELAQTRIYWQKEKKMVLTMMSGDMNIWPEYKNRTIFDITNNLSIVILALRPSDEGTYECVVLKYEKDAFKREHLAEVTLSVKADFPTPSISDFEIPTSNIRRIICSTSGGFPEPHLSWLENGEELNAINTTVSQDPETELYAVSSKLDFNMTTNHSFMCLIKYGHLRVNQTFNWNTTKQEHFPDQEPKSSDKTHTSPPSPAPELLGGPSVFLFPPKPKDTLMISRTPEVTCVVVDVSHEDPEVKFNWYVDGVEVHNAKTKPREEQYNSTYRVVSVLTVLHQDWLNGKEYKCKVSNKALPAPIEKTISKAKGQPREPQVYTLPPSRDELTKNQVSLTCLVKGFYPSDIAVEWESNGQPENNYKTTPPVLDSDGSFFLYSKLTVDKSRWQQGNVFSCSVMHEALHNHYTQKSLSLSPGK
Procedure: b) Expression of CD28 in CHO cells
Using petri dishes 10 cm in diameter, 1×10^5 dihydrofolate reductase deficient (DHFR^-) CHO cells were cultured in an αMEM medium containing 10% fetal bovine serum for 24 hours. To these cells, the CD28cDNA expression plasmid pAKKO-CD28as obtained in Reference Example 1 (10 μg) was introduced by the calcium phosphate method. Forty-eight hours later, the medium was replaced with an αMEM medium (no nucleic acid contained) containing 10% dialyzed fetal bovine serum, and cells incorporating the plasmid in their chromosome were selected. For these selected cells, CD28 expression was examined by flow cytometry (EPICS ELITE, COULTER), and cells showing high expression of CD28were obtained. These cells were cloned by the limiting dilution method to obtain CD28-CHO-11, a cell line that stably expresses high amount of CD28. […]
c) Establishment of CHO cells that produce soluble B7-1-Ig
Using petri dishes 10 cm in diameter, 1×10^5 dihydrofolate reductase deficient (DHFR^31 ) CHO cells were cultured in an αMEM medium containing 10% fetal bovine serum for 24 hours. To these cells, 10 μg of the expression plasmid encoding soluble B7-1-Ig as obtained in Reference Example 22 was introduced by the calcium phosphate method. Forty-eight hours later, the medium was replaced with an αMEM medium (no nucleic acid contained) containing 10% dialyzed fetal bovine serum, and cells incorporating the plasmid into their chromosome were selected. For these selected cells, the amount of soluble B7-1-Ig produced in the culture supernatant was measured by EIA, and cells showing high productivity were obtained. These cells were cloned by the limiting dilution method to obtain sB7-1-Ig-CHO-20, a cell line that stably produces soluble B7-1-Ig. […]
d) Preparation of soluble B7-1-Ig
Using petri dishes 15 cm in diameter, the soluble B7-1-Ig-producing CHO cells obtained in term c) above (sB7-1-Ig-CHO-20) were cultured in an αMEM medium containing 10% fetal bovine serum to yield 5 l of culture supernatant. This culture supernatant was crudely purified using a protein G column (Chromatop Superprotein G, […] I.D.×10 cm, NGK Insulators, Ltd.) and further purified by gel filtration chromatography (TSKgel G3000SW, […] I.D.×[…], Tosoh) to yield 20 mg of a purified standard preparation.
Binding inhibition test using soluble B7-1-Ig
The CHO cells that expressed CD28obtained in Example 122 were suspended in an αMEM medium (no nucleic acid contained) containing 10% dialyzed fetal bovine serum, seeded into 96-well microplates (flat bottom) to 3×10^4 cells/well, and cultured in the presence of 5% CO2 at 37° C. for 48 hours. The culture supernatant was removed by aspiration from each plate to which cells adhered, followed by the addition of phosphate buffer saline (PBS) containing 0.5% paraformaldehyde to fix the cells. After this plate was washed twice with PBS containing 10% Block Ace (Snow Brand Milk Products), 10 μg/ml soluble B7-1-Ig and a sample were added to each well. Binding reaction was carried out by keeping the plate standing at room temperature for 30 minutes. After the reaction, the plate was washed twice with PBS containing 10% Block Ace (Snow Brand Milk Products), followed by the addition of peroxidase-labeledanti-human IgG (Cappel) and 2 hours of reaction. The plate was further washed twice with PBS containing 10% Block Ace (Snow Brand Milk Products), after which 100 μl of a 0.1M citrate buffer containing 6.5 mg/ml ortho-phenylenediamine dihydrochloride (Wako Pure Chemical Industries) and 0.06% hydrogen peroxide was added to each well. Twenty minutes later, the coloring reaction was stopped with 2N sulfuric acid, and the absorbance at 492 nm was determined using a plate reader (BIO-RAD Model 1450).

Row | IC50 [3] | SMILES | IC50 [1] | deaths after intraperitoneal administration [2]
1 | < 210 nM | COC(=O)c1c([S+]([O-])CC(=O)O)c(O)cc2oc3c(Cl)c(C)c(Cl)c(O)c3c(=O)c12 (centres unmarked) [Compound 17, methyl 2-(carboxymethylsulfinyl)-5,7-dichloro-3,8-dihydroxy-6-methyl-9-oxo-9H-xanthene-1-carboxylate] | – | –
2 | < 194 nM | CCC(=O)Oc1c(Cl)c(C)c(Cl)c2oc3cc(O)c(SCC(=O)O)c(C(=O)OC)c3c(=O)c12 [Compound 27] | – | –
3 | 171 nM | COC(=O)c1c(SCC(=O)O)c(O)c(I)c2oc3c(Cl)c(C)c(Cl)c(O)c3c(=O)c12 [Compound 40] | – | –
4 | < 166 nM | COC(=O)c1c([S+]([O-])CC(=O)O)c(O)c(I)c2oc3c(Cl)c(C)c(Cl)c(O)c3c(=O)c12 (centres unmarked) [Compound 54, methyl 2-(carboxymethylsulfinyl)-5,7-dichloro-3,8-dihydroxy-4-iodo-6-methyl-9-oxo-9H-xanthene-1-carboxylate] | – | –
5 | 238 nM | COC(=O)c1c(SCC(=O)O)c(O)c([N+](=O)[O-])c2oc3c(Cl)c(C)c(Cl)c(O)c3c(=O)c12 [Compound 132] | – | –

Row | SMILES | IC50 [3] | IC50 [1] | deaths after intraperitoneal administration [2]
6 | COC(=O)c1c(SCC(=O)O)c(O)cc2oc3c(Cl)c(C)c(Cl)c(O)c3c(=O)c12 [Compound 1] | 305 nM | 10 µg/mL (≈ 21.8 µM) | no animals died
